The NIST ThermoML archive (doi:10.1016/j.tca.2005.08.036)
± gives the expanded uncertainty stated by the source.

Conditions: Liquid, Capillary tube (Ostwald / Ubbelohde) method

O [water]
viscosity [mPa·s]
Conditions | 284.56 K | 304.83 K | 335.46 K | 368.64 K | 397.56 K | 435.61 K
100 kPa | 1.257 ± 0.011 | 0.7654 ± 0.007 | 0.4482 ± 0.0044 | 0.2938 ± 0.0032 | – | –
10000 kPa | 1.249 ± 0.011 | 0.7725 ± 0.0071 | 0.4504 ± 0.0044 | 0.2966 ± 0.0032 | 0.2278 ± 0.0026 | 0.1679 ± 0.0022
40000 kPa | 1.231 ± 0.011 | 0.7745 ± 0.007 | 0.4635 ± 0.0045 | 0.3086 ± 0.0032 | 0.2358 ± 0.0027 | 0.1745 ± 0.0022
